Key:
[1] = system: Gastric cancer cell line AGS; test: Colorimetric cell proliferation and viability assay (CellTiter-Blue), AGS; details: 72 h, read-out: IC50, agent alone
[2] = clinically achievable concentrations, plasma; read-out: Cmax (reported / approximate, measured in plasma); cited from earlier work
[3] = system: Gastric cancer cell line HGC-27; test: Colorimetric cell proliferation and viability assay (CellTiter-Blue), HGC-27; details: Homo sapiens, HGC-27, 72 h, read-out: IC50, agent alone

For CCc1c2c(nc3ccc(OC(=O)N4CCC(N5CCCCC5)CC4)cc13)-c1cc3c(c(=O)n1C2)COC(=O)[C@]3(O)CC [Irinotecan], the IC50 [1] is listed as 20 µM, the Cmax [2] is listed as 1 to 10 µM and the IC50 [3] is listed as over 100 µM.
For CC[C@]1(O)C[C@H]2CN(CCc3c([nH]c4ccccc34)[C@@](C(=O)OC)(c3cc4c(cc3OC)N(C=O)[C@H]3[C@@](O)(C(=O)OC)[C@H](OC(C)=O)[C@]5(CC)C=CCN6CC[C@]43[C@@H]65)C2)C1 [Vincristin], the IC50 [1] was over 1 µM and the IC50 [3] was 0.1 to 1 µM.
In the case of O=c1[nH]cc(F)c(=O)[nH]1 [5-FU, 5-fluorouracil], the IC50 [1] is given as 100 µM, the Cmax [2] is given as 60 to 200 µM and the IC50 [3] is given as 1000 µM.
Work on Cc1ccc(NC(=O)c2ccc(CN3CCN(C)CC3)cc2)cc1Nc1nc(-c2cccnc2)cs1 [masitinib, 4-(4-methylpiperazin-1-ylmethyl)-N-[4-methyl-3-(4-pyridin-3ylthiazol-2-ylamino)phenyl]benzamide] yielded an IC50 [1] of 5 to 10 µM and an IC50 [3] of 5 to 10 µM.
In the case of COc1cc([C@@H]2c3cc4c(cc3[C@@H](O[C@@H]3O[C@@H]5CO[C@@H](C)O[C@H]5[C@H](O)[C@H]3O)[C@H]3COC(=O)[C@H]23)OCO4)cc(OC)c1O [Etoposide], the IC50 [1] is listed as 10 µM, the Cmax [2] is listed as about 34 µM and the IC50 [3] is listed as 20 µM.
